Where “and” joins values, the source holds several entries; their conditions need not be identical. Identical values can stand only once.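 These data come from cells grown in 96-well plates and exposed to compound for 48 hours at five concentrations. GI50: concentration for 50% inhibition of growth. TGI marks complete inhibition of growth.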 Where only a bound is given, the exact number is not on record here.

The source of these data is PubChem BioAssay (NCI).

Common to all, as to assay: NCI tumour cell line growth inhibition, 48 h
For experiment [1], the system named is UO-31 renal.
Experiment [2] concerns OVCAR-8 ovarian.
In experiment [3] the test system is UACC-257 melanoma.
The subject of experiment [4] is BT-549 breast.
Experiment [5] relates to PC-3 prostate.
The test system of experiment [6] is SN12C renal.
Experiment [7] relates to U251 CNS.
The test system of experiment [8] is SK-MEL-2 melanoma.
Experiment [9] has as its system OVCAR-4 ovarian.
Experiment [10] concerns HS 578T breast.

Take `O=C1Nc2ccccc2/C1=C\c1nc(-c2ccccc2F)n2ccccc12`: the GI50 in [1] was 2.12 µM; in experiment [2], 2.49 µM; in experiment [3], 5.2 µM; in experiment [4], 3.37 µM; in experiment [5] it was 6.81 µM; in experiment [6] it was 4.32 µM. Further, the GI50 is 2.57 µM in experiment [7], 6.81 µM in [8] and 1.81 µM in [9]. For the same molecule, the TGI in experiment [1] is 10.8 µM; in experiment [2], 8.12 µM; in experiment [3], 18.1 µM; in [4], 12.9 µM; in [5] it was 26.9 µM; in [6], 17 µM. Besides, the results for the TGI in experiment [7], in [8] and in experiment [9] were 6.1 µM, 19.6 µM and 4.49 µM, respectively.
For the molecule `CCN1C(=O)N(CC)C2C1NN=c1s/c(=C3\C(=O)N(C4CCCC4)c4ccccc43)c(=O)n12` (configuration not stated), the GI50 in experiment [2] was 2.12 µM; in [4] it was 2.03 µM; in [5] it was 1.15 µM; in experiment [6], 2.76 µM; in experiment [10], 1.01 µM; in [7], 1.57 µM. Besides, in experiment [8], the GI50 was 2.76 µM. The TGI in experiment [2] is over 100 µM; in experiment [4] it was 7.84 µM; in experiment [5] it was over 100 µM; in [6], over 100 µM; in experiment [10] it was 8.77 µM; in [7], 15.6 µM. In experiment [8], this molecule displayed a TGI of 17.6 µM.
Regarding `Clc1cccc(CNc2c3ccccc3nc3ccccc23)c1`, the GI50 is 1.14 µM in experiment [1]; 2.41 µM in experiment [2]; 1.92 µM in experiment [3]; 2.34 µM in experiment [4]; 1.64 µM in experiment [5]; 2.36 µM in [6]. Also, the GI50 is 2 µM in [7], 2 µM in experiment [8] and 2.15 µM in [9]. The TGI worked out at 3.13 µM in experiment [1]; 8.93 µM in [2]; 4.25 µM in experiment [3]; 7.19 µM in experiment [4]; 4.65 µM in experiment [5]; 11 µM in [6]. Further, the figures for the TGI in experiment [7], in experiment [8] and in experiment [9] were 4.56 µM, 4.22 µM and 7.95 µM, respectively.
Regarding `CC1=C(C(=O)Nc2ccc(F)c(Cl)c2)C(c2cccc(Oc3ccccc3)c2)NC(=S)N1` (configuration not stated), the GI50 in experiment [1] was 13.3 µM; in experiment [2], 11.3 µM; in [3], 13.5 µM; in [4], 14.1 µM; in experiment [5], 11.9 µM; in experiment [6], 9.27 µM. Besides, the GI50 in experiment [10] is 13.3 µM; in [7], 9.64 µM; in experiment [8], 9.72 µM. Further, the TGI was determined as 44.3 µM in experiment [1]; 26.9 µM in experiment [2]; 33.5 µM in [3]; 32.4 µM in [4]; 48.2 µM in experiment [5]; 17.6 µM in experiment [6]. In addition, the TGI in experiment [10] is 29.2 µM; in experiment [7], 20.2 µM; in experiment [8], 27.2 µM.
Take `CN(C)Cc1ccc(NC(=O)c2cncc(C#Cc3cnc(N)c4ncccc34)c2)cc1F`: the GI50 is 2.38 µM in [1]; 2.31 µM in experiment [2]; 7.31 µM in experiment [3]; 19.4 µM in experiment [4]; 1.74 µM in [5]; 1.92 µM in experiment [6]. Further, the GI50 in [10] was 7.85 µM; in [7], 1.93 µM; in experiment [8], 14 µM. The TGI in experiment [1] is 4.08 µM; in [2] it was 5.02 µM; in [3] it was 26.7 µM; in experiment [4] it was 39.6 µM; in experiment [5] it was 3.34 µM; in [6] it was 3.56 µM. In addition, the TGI in [10] is 27.7 µM; in [7], 3.89 µM; in experiment [8], 35.3 µM.
`COc1cc2ncnc(Nc3ccc(Oc4ccnc(C)c4)c(C)c3)c2cc1NC(=O)CC1CCSS1` (configuration not stated): the GI50 in [1] is 0.853 µM; in experiment [2], 2.19 µM; in experiment [3], 1.02 µM; in experiment [4], 1.2 µM; in experiment [6], 1.5 µM; in [10], 1.12 µM. Further, the GI50 in [7] is 1.15 µM; in [8], 0.904 µM; in experiment [9], 1.54 µM. Besides, the TGI in experiment [1] is 2.83 µM; in experiment [2], over 50 µM; in experiment [3] it was 2.35 µM; in experiment [4], 2.94 µM; in [6] it was over 50 µM; in [10], 3.21 µM. The TGI was found to be 2.81 µM in [7], 1.91 µM in experiment [8] and 24.3 µM in experiment [9].
For `COc1ccc2c(c1)/C(=C\c1c(-c3cc(OC)ccc3OC)nc3sccn13)C(=O)N2`, the GI50 in experiment [1] was 1.57 µM; in experiment [3], 2.17 µM; in experiment [4] it was 4.67 µM; in [5] it was 7.97 µM and 2.32 µM; in experiment [7], 9.76 µM; in experiment [8], 1.77 µM. Also, the GI50 in [9] was 1.53 µM. The TGI in experiment [1] is 3.02 µM; in [3], 4.43 µM; in experiment [5], 5.83 µM; in experiment [7], 24.5 µM; in experiment [8], 4.2 µM; in [9] it was 2.87 µM.
